Experimental data reported in article PMC8980814 (The Journal of Biological Chemistry, 2022).

What was measured:
Experiment in all cases: whole-cell patch clamp, HEK-293T
Type in all cases: cell-based
rCaV1.2 [1] = biological target: T1, rCaV1.2 (Rattus norvegicus, UniProt P22002); conditions: for inhibition at 10 µM: read-out: % block at 10 μM
TCaV1 [2] = biological target: T2, TCaV1 (Trichoplax adhaerens, UniProt A0A8K1XS01); conditions: for inhibition at 10 µM: read-out: % block at 10 μM
TCaV1 [3] = biological target: T2, TCaV1; conditions: 3 mM external Ca2+, step from -100 mV to 0 mV, pH 7.4, agonist
rCaV1.2 [4] = biological target: T1, rCaV1.2; conditions: 3 mM external Ca2+, step from -100 mV to 0 mV, pH 7.4, agonist

T1 sequence (P22002 whole entry): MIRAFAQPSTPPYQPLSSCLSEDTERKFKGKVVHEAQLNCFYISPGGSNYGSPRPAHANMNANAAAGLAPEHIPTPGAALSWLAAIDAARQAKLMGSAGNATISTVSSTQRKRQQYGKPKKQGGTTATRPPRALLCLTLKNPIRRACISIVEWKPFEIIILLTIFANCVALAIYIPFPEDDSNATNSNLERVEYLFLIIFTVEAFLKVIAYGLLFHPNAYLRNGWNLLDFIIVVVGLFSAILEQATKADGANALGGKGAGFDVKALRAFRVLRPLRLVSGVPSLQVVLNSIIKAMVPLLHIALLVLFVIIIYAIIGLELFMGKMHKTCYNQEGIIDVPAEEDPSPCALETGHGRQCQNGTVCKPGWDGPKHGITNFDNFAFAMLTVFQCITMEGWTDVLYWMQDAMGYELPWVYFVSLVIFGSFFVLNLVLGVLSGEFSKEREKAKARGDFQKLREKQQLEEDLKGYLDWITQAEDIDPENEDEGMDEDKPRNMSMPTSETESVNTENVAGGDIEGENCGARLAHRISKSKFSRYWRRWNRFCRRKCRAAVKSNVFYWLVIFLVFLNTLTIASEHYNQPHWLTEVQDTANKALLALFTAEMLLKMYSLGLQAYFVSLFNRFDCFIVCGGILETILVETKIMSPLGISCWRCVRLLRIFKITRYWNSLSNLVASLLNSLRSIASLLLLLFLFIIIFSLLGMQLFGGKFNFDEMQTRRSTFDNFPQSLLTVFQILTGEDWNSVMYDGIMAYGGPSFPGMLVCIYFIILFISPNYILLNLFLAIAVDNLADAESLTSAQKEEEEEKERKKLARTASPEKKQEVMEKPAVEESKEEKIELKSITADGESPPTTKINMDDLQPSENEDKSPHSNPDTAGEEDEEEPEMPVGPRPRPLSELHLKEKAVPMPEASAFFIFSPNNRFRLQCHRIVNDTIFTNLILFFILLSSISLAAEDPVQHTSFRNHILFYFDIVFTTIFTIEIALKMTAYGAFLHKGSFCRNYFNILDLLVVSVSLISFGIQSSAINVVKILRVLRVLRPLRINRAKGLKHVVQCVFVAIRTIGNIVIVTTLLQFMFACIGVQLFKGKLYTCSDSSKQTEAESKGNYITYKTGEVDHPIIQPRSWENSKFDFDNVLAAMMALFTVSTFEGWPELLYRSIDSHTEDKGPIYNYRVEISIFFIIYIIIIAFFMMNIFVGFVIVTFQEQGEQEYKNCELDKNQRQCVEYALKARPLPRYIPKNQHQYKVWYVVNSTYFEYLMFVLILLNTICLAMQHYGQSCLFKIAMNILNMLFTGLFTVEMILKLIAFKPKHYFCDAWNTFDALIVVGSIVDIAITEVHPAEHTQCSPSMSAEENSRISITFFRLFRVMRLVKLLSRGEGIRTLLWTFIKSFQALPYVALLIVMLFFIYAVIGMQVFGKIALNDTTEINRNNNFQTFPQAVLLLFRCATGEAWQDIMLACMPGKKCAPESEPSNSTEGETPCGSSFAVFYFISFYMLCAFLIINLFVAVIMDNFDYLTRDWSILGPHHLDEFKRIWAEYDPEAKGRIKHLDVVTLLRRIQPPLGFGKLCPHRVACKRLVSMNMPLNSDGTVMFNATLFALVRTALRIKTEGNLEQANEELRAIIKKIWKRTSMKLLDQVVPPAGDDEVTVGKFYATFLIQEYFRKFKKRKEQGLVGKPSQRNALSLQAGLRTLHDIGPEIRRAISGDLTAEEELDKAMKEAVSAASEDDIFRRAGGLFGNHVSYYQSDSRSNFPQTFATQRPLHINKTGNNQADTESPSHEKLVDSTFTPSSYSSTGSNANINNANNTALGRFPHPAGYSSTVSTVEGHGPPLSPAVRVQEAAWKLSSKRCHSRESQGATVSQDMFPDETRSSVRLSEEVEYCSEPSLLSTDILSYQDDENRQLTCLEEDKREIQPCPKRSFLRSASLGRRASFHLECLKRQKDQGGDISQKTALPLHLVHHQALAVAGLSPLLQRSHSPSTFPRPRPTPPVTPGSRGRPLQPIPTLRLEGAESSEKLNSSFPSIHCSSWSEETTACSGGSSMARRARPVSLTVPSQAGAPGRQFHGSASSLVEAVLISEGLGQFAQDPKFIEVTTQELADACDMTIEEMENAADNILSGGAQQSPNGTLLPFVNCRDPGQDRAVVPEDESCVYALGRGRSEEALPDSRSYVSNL
T1 sequence (P54283 whole entry partner): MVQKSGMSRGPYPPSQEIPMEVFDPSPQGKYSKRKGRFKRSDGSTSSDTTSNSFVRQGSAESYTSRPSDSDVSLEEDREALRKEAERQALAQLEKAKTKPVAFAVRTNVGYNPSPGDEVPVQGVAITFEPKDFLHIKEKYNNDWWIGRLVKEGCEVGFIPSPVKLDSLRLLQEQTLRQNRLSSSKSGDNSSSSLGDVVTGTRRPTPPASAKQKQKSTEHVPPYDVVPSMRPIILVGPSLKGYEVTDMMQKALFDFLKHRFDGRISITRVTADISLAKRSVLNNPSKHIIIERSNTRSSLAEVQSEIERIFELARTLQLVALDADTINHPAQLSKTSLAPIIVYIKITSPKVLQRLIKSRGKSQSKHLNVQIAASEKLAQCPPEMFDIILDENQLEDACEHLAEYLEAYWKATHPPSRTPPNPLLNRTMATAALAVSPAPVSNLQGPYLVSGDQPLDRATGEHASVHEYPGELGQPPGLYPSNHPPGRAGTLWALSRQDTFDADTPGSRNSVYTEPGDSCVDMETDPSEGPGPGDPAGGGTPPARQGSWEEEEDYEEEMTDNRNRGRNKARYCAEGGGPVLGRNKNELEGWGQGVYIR
T1 sequence (P54290 25-944 partner): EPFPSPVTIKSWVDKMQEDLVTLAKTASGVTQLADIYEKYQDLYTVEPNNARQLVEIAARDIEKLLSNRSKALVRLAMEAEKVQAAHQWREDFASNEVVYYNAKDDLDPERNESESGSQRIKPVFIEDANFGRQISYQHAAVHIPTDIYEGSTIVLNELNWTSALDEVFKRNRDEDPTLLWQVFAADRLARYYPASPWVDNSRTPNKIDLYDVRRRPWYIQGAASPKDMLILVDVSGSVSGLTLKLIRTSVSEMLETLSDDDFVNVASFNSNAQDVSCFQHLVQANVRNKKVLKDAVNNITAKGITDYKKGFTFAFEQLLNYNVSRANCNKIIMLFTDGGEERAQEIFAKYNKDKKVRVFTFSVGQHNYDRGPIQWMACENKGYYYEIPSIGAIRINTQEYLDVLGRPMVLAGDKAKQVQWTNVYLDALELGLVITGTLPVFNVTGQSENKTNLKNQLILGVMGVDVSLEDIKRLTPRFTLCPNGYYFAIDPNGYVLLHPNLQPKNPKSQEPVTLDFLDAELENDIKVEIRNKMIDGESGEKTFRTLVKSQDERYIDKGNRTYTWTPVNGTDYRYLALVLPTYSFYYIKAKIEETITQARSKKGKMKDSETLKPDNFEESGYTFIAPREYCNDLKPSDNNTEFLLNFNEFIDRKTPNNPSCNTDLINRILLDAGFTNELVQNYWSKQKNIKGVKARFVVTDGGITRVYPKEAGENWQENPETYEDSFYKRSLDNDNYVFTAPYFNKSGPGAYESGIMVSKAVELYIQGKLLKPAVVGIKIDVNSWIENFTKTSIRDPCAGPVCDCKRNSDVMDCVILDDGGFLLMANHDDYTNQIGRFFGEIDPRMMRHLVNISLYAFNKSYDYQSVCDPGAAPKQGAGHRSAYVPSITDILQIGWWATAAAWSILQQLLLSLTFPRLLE
T1 sequence (P54290 945-1091 partner): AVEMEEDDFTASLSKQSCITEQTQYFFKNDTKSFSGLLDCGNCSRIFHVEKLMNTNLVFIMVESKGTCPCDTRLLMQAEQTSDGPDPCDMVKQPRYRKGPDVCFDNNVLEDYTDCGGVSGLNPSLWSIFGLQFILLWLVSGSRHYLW

inhibition at 10 µM (TCaV1 [2]) [%]	SMILES	inhibition at 10 µM (rCaV1.2 [1]) [%]	other results
	COC(=O)C1=C(C)NC(C)=C([N+](=O)[O-])[C@@H]1c1ccccc1C(F)(F)F [R(+)BayK 8644]		inhibition at 100 µM (rCaV1.2 [1]; read-out: % block at 100 μM): 97.3 ± 0.01%; inhibition at 100 µM (TCaV1 [2]; read-out: % block at 100 μM): 74.2 ± 0.05%
	COC(=O)C1=C(C)NC(C)=C([N+](=O)[O-])[C@H]1c1ccccc1C(F)(F)F [S(-)BayK 8644]		fold-increase in peak current at 5 μM (TCaV1 [3]): 1.11 ± 0.024 fold; fold-increase in peak current at 5 μM (rCaV1.2 [4]): 1.64 ± 0.32 fold
11.5 ± 2.2	COC(=O)C1=C(C)NC(C)=C(C(=O)OC(C)C)C1c1cccc2nonc12 (centres unmarked) [isradipine]	95 ± 6.1	
5.8 ± 3.6	COC(=O)C1=C(C)NC(C)=C(C(=O)OC)C1c1ccccc1[N+](=O)[O-] [nifedipine]	99.7 ± 0.1	
